Results: patent publication US20210299082A1, “FISETIN COMPOSITION AND A METHOD OF MAKING THE SAME” (priority 2020, published 2021)
Like-named read-outs stand apart in the source and are kept apart here.

What was measured:
[1] = solubility of fisetin in water and in ethanol; type: physicochemical
Protocol: In one embodiment of the invention, a fisetin composition comprises fisetin and a second component that is selected from a group that comprises ethanol. The group may further comprise water. In one example, the solubility of fisetin in water is substantially 0.05 mg/mL or more, such as 0.1 mg/mL or more, 0.15 mg/mL or more, or 0.2 mg/mL. In another example, the solubility of fisetin in ethanol is substantially 2 mg/mL or more, such as 4 mg/mL or more, 6 mg/mL or more, 8 mg/mL or more, or 10 mg/mL or more.

joint pain in a person = experiment: joint pain relief in a person after oral fisetin; type: in vivo, human; conditions: for reported joint pain: ingested 5 consecutive days
Protocol: In still another embodiment of the invention, the fisetin composition is used to relieve joint pain in a person. A person ingested fisetin (500 mg) in capsule powder form for 5 consecutive days, fisetin (500 mg) mixed in 35 mL of MCT oil for 5 consecutive days, or fisetin (500 mg) mixed in 40 mL of 40% ethanol and 60% water for 5 consecutive days, each test separated by a month. Reported joint pain decreased only after consuming fisetin in 40% ethanol and 60% water, but not the other regimens.

blood glucose level = blood glucose level in a person after oral fisetin; type: in vivo, human
Protocol: In still another example of the embodiment, fisetin can be used to decrease blood glucose level. Fisetin (500 mg) was ingested by a person after mixing with 75 mL of 53% ethanol and 47% water for 3 consecutive days.

skin of 20 people = experiment: topical skin treatment; type: in vivo, human; conditions: 200 mM fisetin in polyethylene glycol containing titanium nanoparticles; applied to the skin of 20 people for 2 days
Protocol: In yet another example of the invention, fisetin can be used as a topical skin treatment. Fisetin was dissolved in polyethylene glycol containing titanium nanoparticles with a resulting fisetin concentration of 200 mM. Fisetin was applied to the skin of 20 people for 2 days.

[2] = 500 mg for 5 consecutive days, regimen not specified, stated after the 40% ethanol and 60% water result
[3] = 500 mg in 75 mL of 53% ethanol and 47% water, 3 consecutive days

O=c1c(O)c(-c2ccc(O)c(O)c2)oc2cc(O)ccc12 [fisetin]
solubility ([1]; in water, read-out: solubility of fisetin in water): ≥ 50 µg/mL
solubility ([1]; organic solvent or mixture, in ethanol, read-out: solubility of fisetin in ethanol): ≥ 2000 µg/mL
energy (joint pain in a person; [2]): slight increase
metabolism (joint pain in a person; [2]): slight increase
weight decrease (joint pain in a person; 500 mg for 5 consecutive days, to a BMI 23.7): approximately 1 kg
reported joint pain (joint pain in a person; 500 mg in capsule powder form): not
reported joint pain (joint pain in a person; 500 mg mixed in 35 mL of MCT oil): not
reported joint pain (joint pain in a person; 500 mg mixed in 40 mL of 40% ethanol and 60% water): decreased
energy (blood glucose level; [3]): slight increase
metabolism (blood glucose level; [3]): slight increase
weight decrease (blood glucose level; 500 mg in 75 mL of 53% ethanol and 47% water, 3 consecutive days, to a BMI 22.1): approx. 1 kg
waking blood glucose level after the administration (blood glucose level; 500 mg mixed with 75 mL of 53% ethanol and 47% water, 3 consecutive days, decreased from 5.7 mmol/L): 4.8 mmol/L
muscle gain (blood glucose level; in a month afterwards without increased exercise): slight muscle gain
skin appearance reported by subjects (skin of 20 people): improved skin appearance
